Data: patent US20240018145A1, “[…]-DEPENDENT EN[…] TREATING OR […]” (priority 2020, published 2024)

test system: FLU A (PR/8/34); assay: Flu A Neuraminidase Antiviral Assay; assay type: cell-based; conditions: not given

| SMILES | EC50 [nM] |
| --- | --- |
| CC1CCC2N(C)C(=O)c3c(O)c(=O)ccn3N2C1(C)c1ccccc1 (single isomer, unassigned) [Compound 29A, 7-hydroxy-1,2,5-trimethyl-1-phenyl-1,2,3,4,4a,5-hexahydrodipyrido[1,2-b:2′,1′-f][1,2,4]triazine-6,8-dione] | 1860 |
| CN1C(=O)c2c(O)c(=O)ccn2N2C1CCC1(CCC(C(F)(F)F)CC1)C2c1ccccc1 (single isomer, unassigned) [Compound 73D, 7′-hydroxy-5′-methyl-1′-phenyl-4-(trifluoromethyl)-3′,4′,4a′,5′-tetrahydro-1′H-spiro[cyclohexane-1,2′-dipyrido[1,2-b:2′,1′-f][1,2,4]triazine]-6′,8′-dione] | 6.6 |
| CC1CC(c2ccccc2)N2C(C1)N(C)C(=O)c1c(O)c(=O)ccn12 (single isomer, unassigned) [Compound 6B, 7-hydroxy-3,5-dimethyl-1-phenyl-1,2,3,4,4a,5-hexahydrodipyrido[1,2-b:2′,1′-f][1,2,4]triazine-6,8-dione] | 7760 |
| CCOC1CCC2N(C)C(=O)c3c(O)c(=O)ccn3N2C1c1ccccc1 (stereo not drawn) [Compound 152B, 2-ethoxy-7-hydroxy-5-methyl-1-phenyl-1,2,3,4,4a,5-hexahydrodipyrido[1,2-b:2′,1′-f][1,2,4]triazine-6,8-dione] | 36.1 |
| CN1C(=O)c2c(O)c(=O)ccn2N2C(c3ccccc3)C(C3CC3(F)F)CCC12 (single isomer, unassigned) [Compound 105B, 2-(2,2-difluorocyclopropyl)-7-hydroxy-5-methyl-1-phenyl-1,2,3,4,4a,5-hexahydrodipyrido[1,2-b:2′,1′-f][1,2,4]triazine-6,8-dione] | > 810 |
| CN1C(=O)c2c(O)c(=O)ccn2N2C1CCC1(CCC(C(F)(F)F)CC1)C2c1ccccc1 (single isomer, unassigned) [Compound 73C, 7′-hydroxy-5′-methyl-1′-phenyl-4-(trifluoromethyl)-3′,4′,4a′,5′-tetrahydro-1′H-spiro[cyclohexane-1,2′-dipyrido[1,2-b:2′,1′-f][1,2,4]triazine]-6′,8′-dione] | 105 |
| CN1C(=O)c2c(O)c(=O)ccn2N2C(c3cccc(Br)c3)C(CC(F)(F)F)CCC12 (single isomer, unassigned) [Compound 83B, 1-(3-bromophenyl)-7-hydroxy-5-methyl-2-(2,2,2-trifluoroethyl)-1,2,3,4,4a,5-hexahydrodipyrido[1,2-b:2′,1′-f][1,2,4]triazine-6,8-dione] | 2.2 |
| CCN1C(=O)c2c(O)c(=O)ccn2N2C(c3ccccc3F)C(CCC(F)F)CCC12 (single isomer, unassigned) [Compound 101A, 2-(3,3-difluoropropyl)-5-ethyl-1-(2-fluorophenyl)-7-hydroxy-1,2,3,4,4a,5-hexahydrodipyrido[1,2-b:2′,1′-f][1,2,4]triazine-6,8-dione] | 148 |
| CN1C(=O)c2c(O)c(=O)ccn2N2C(c3cc(F)ccc3C(F)(F)F)CCCC12 (single isomer, unassigned) [Compound 13B, 1-(5-fluoro-2-(trifluoromethyl)phenyl)-7-hydroxy-5-methyl-1,2,3,4,4a,5-hexahydro-dipyrido[1,2-b:2′,1′-f][1,2,4]triazine-6,8-dione] | 783 |
| CCCC1CCC2N(C)C(=O)c3c(O)c(=O)ccn3N2C1(C)c1ccccc1 (single isomer, unassigned) [Compound 33C, 7-hydroxy-1,5-dimethyl-1-phenyl-2-propyl-1,2,3,4,4a,5-hexahydrodipyrido[1,2-b:2′,1′-f][1,2,4]triazine-6,8-dione] | 1320 |
| CN1C(=O)c2c(O)c(=O)ccn2N2C1CCC1(CC(F)(F)C1)C2c1ccccc1 (single isomer, unassigned) [Compound 74D, 3,3-difluoro-7′-hydroxy-5′-methyl-1′-phenyl-3′,4′,4a′,5′-tetrahydro-1′H-spiro[cyclobutane-1,2′-dipyrido[1,2-b:2′,1′-f][1,2,4]triazine]-6′,8′-dione] | 442 |
| Cc1ccccc1C1C(CCC(F)F)CCC2N(C)C(=O)c3c(O)c(=O)ccn3N12 (single isomer, unassigned) [Compound 103A, 2-(3,3-difluoropropyl)-7-hydroxy-5-methyl-1-(o-tolyl)-1,2,3,4,4a,5-hexahydrodipyrido[1,2-b:2′,1′-f][1,2,4]triazine-6,8-dione] | > 810 |
| Cc1ccnc(C2(C)CCCC3N(CC(F)(F)F)C(=O)c4c(O)c(=O)ccn4N32)c1 (single isomer, unassigned) [Compound 50B, 7-hydroxy-1-methyl-1-(4-methylpyridin-2-yl)-5-(2,2,2-trifluoroethyl)-1,2,3,4,4a,5-hexahydrodipyrido[1,2-b:2′,1′-f][1,2,4]triazine-6,8-dione] | 9 |
| CN1C(=O)c2c(O)c(=O)ccn2N2C1CCCC2(C)c1ncccc1F (single isomer, unassigned) [Compound 27A, 1-(3-fluoropyridin-2-yl)-7-hydroxy-1,5-dimethyl-1,2,3,4,4a,5-hexahydrodipyrido[1,2-b:2′,1′-f][1,2,4]triazine-6,8-dione] | 859 |
| CN1C(=O)c2c(O)c(=O)ccn2N2C(c3ccccc3C3CC3)C(CC(F)(F)F)CCC12 (single isomer, unassigned) [Compound 107B, 1-(2-cyclopropylphenyl)-7-hydroxy-5-methyl-2-(2,2,2-trifluoroethyl)-1,2,3,4,4a,5-hexahydrodipyrido[1,2-b:2′,1′-f][1,2,4]triazine-6,8-dione] | 14.4 |
| CN1C(=O)c2c(O)c(=O)ccn2N2C(c3ccccc3)C(c3cc(F)c(F)cc3F)CCC12 (single isomer, unassigned) [Compound 86B, 7-hydroxy-5-methyl-1-phenyl-2-(2,4,5-trifluorophenyl)-1,2,3,4,4a,5-hexahydrodipyrido[1,2-b:2′,1′-f][1,2,4]triazine-6,8-dione] | > 810 |
| CN1C(=O)c2c(O)c(=O)ccn2N2C1CCC(=O)C2(C)c1ccccc1 (stereo not drawn) [Compound 138A, 7-hydroxy-1,5-dimethyl-1-phenyl-3,4,4a,5-tetrahydrodipyrido[1,2-b:2′,1′-f][1,2,4]triazine-2,6,8(1H)-trione] | 19.7 |
| CN1C(=O)c2c(O)c(=O)ccn2N2C1CCC(O)C2(C)c1ccccc1 (stereo not drawn) [Compound 137C, 2,7-dihydroxy-1,5-dimethyl-1-phenyl-1,2,3,4,4a,5-hexahydrodipyrido[1,2-b:2′,1′-f][1,2,4]triazine-6,8-dione] | > 8100 |
| CN1C(=O)c2c(O)c(=O)ccn2N2C(c3ccccc3F)CCCC12 (single isomer, unassigned) [Compound 8B, 1-(2-fluorophenyl)-7-hydroxy-5-methyl-1,2,3,4,4a,5-hexahydrodipyrido[1,2-b:2′,1′-f][1,2,4]triazine-6,8-dione] | 65.6 |
| COc1c2n(ccc1=O)N1C(c3ccccc3)C(SC(C)C)CCC1N(C)C2=O (stereo not drawn) [Compound 146A, 2-(isopropylthio)-7-methoxy-5-methyl-1-phenyl-1,2,3,4,4a,5-hexahydrodipyrido[1,2-b:2′,1′-f][1,2,4]triazine-6,8-dione] | 18.7 |
| CN1C(=O)c2c(O)c(=O)ccn2N2C(c3ccccc3)C(CCC(F)F)CCC12 (single isomer, unassigned) [Compound 124A, 2-(3,3-difluoropropyl)-7-hydroxy-5-methyl-1-phenyl-1,2,3,4,4a,5-hexahydrodipyrido[1,2-b:2′,1′-f][1,2,4]triazine-6,8-dione] | 871 |
| CCN1C(=O)c2c(O)c(=O)ccn2N2C1CCC1(CCC(F)(F)CC1)C2c1ccccc1 (single isomer, unassigned) [Compound 76A] | > 810 |
| CN1C(=O)c2c(O)c(=O)ccn2N2C1CCCC2(C)c1ccccc1Cl (single isomer, unassigned) [Compound 20B, 1-(2-chlorophenyl)-7-hydroxy-1,5-dimethyl-1,2,3,4,4a,5-hexahydrodipyrido[1,2-b:2′,1′-f][1,2,4]triazine-6,8-dione] | 4.6 |
| CC1(c2ccccc2)CCCC2N(CCC(F)(F)F)C(=O)c3c(O)c(=O)ccn3N21 (single isomer, unassigned) [Compound 38A, 7-hydroxy-1-methyl-1-phenyl-5-(3,3,3-trifluoropropyl)-1,2,3,4,4a,5-hexahydrodipyrido[1,2-b:2′,1′-f][1,2,4]triazine-6,8-dione] | > 8100 |
| Cc1cc(=O)c(O)c2n1N1C(c3ccccc3)C(CC(F)(F)F)CCC1N(C)C2=O (single isomer, unassigned) [Compound 132A, 7-hydroxy-5,10-dimethyl-1-phenyl-2-(2,2,2-trifluoroethyl)-1,2,3,4,4a,5-hexahydrodipyrido[1,2-b:2′,1′-f][1,2,4]triazine-6,8-dione] | > 810 |
| CC(C1CCC2N(C)C(=O)c3c(O)c(=O)ccn3N2C1c1ccccc1)C(F)(F)F (single isomer, unassigned) [Compound 109B, 7-hydroxy-5-methyl-1-phenyl-2-(1,1,1-trifluoropropan-2-yl)-1,2,3,4,4a,5-hexahydrodipyrido[1,2-b:2′,1′-f][1,2,4]triazine-6,8-dione] | 5.4 |
| Cc1ccccc1C1N2C(CCC13CCC(F)(F)CC3)N(C)C(=O)c1c(O)c(=O)ccn12 (single isomer, unassigned) [Compound 70A, 4,4-difluoro-7′-hydroxy-5′-methyl-1′-(o-tolyl)-3′,4′,4a′,5′-tetrahydro-1′H-spiro[cyclohexane-1,2′dipyrido[1,2-b:2′,1′-f][1,2,4]triazine]-6′,8′-dione] | 299 |

same assay, conditions: MDCK, 48 h

| SMILES | EC50 [nM] |
| --- | --- |
| CN1C(=O)c2c(O)c(=O)ccn2N2C(c3ccccc3)C3CCCC(C3)C12 (single isomer, unassigned) [Compound 11A, 4-hydroxy-6-methyl-12-phenyl-6,6a,7,8,9,10,11,12-octahydro-7,11-methanopyrido[1′,2′:1,6][1,2,4]triazino[2,3-a]azocine-3,5-dione] | > 8100 |
| CN1C(=O)c2c(O)c(=O)ccn2N2C(c3ccccc3)[C@H]3CCCC[C@H]3C12 (stereo partly drawn) [Compound 16, (6bR,10aS)-4-hydroxy-6-methyl-11-phenyl-6a,6b,7,8,9,10,10a,11-octahydro-3H-pyrido[1′,2′:1,6][1,2,4]triazino[3,2-a]isoindole-3,5(6H)-dione] | 4100 |
| CC(C)S[C@H]1CC[C@H]2N(C)C(=O)c3c(O)c(=O)ccn3N2[C@@H]1c1ccccc1 [Compound 143B] | 15.3 |
